From patent publication US4156011A, “Sulphur- and oxygen-containing diaryl compounds” (priority 1974, dated 1979)
Where two headings read alike, the source gives them in different places. One block for each compound: values may come before it.

Columns and labels:
[1] = system: platelets (aggregation induced by collagen); test: Anti-aggregation action, platelet aggregation induced by collagen; assay type: in vivo, male Wistar rats; conditions: 4 days
Experimental: (a) by collagen: the inhibition of aggregation (which corresponds to the % transmission), the latency period and the speed; and
In Table IV which follows have been shown the results relating to the anti-aggregation action of some products on the blood of male Wistar rats, the aggregating agents used being collagen/acetic acid diluted 1/10, and ADP at 1 μM.

[2] = Solubility of the isolated product
[3] = Hypo-lipidaemic and hypo-cholesterolaemic action in rats on hyper-lipid diet; assay type: in vivo, Wistar rats; conditions: hyper-lipid diet; for inhibition at 10 mg/kg / inhibition at 25 mg/kg / inhibition at 100 mg/kg: Rattus norvegicus, normal diet = 100%, hyper-lipid diet = 0%
From the text: A. a batch of rats receiving a normal diet (percentage inhibition=100%);
B. a batch of rats receiving a hyper-lipid diet (percentage inhibition=0%);
C. a batch of rats receiving the hyper-lipid diet B with a daily dose, of 0.1 g/kg, of a reference product having a lipidaemia-normalising action, namely Lipavlon [ethyl 2-(p-chlorophenoxy)-2-methyl-propionate];
D. a batch of rats receiving the hyper-lipid diet B with a daily dose, of 0.1 g/kg, of another product having a lipidaemia-normalising action, namely LL 1558 [1,10-bis-(2-hydroxyethyl-thio)-decane]; and
E. a batch of rats receiving the hyper-lipid diet B with a daily dose of 10 mg/kg and 25 mg/kg, where necessary, higher doses.
In Table III which follows have been shown the results relating to CRL 40,201 (the product of Example 17) and CRL 40,202 (the product of Example 18) in respect of the hypo-lipidaemic action and hypo-cholesterolaemic action.

[4] = Reduction of lipids and cholesterol in rats treated orally; assay type: in vivo; conditions: for inhibition in vivo at 20 mg/kg / inhibition in vivo at 100 mg/kg: Rattus norvegicus
[5] = Hypo-lipidaemic and hypo-cholesterolaemic action of other products (Table V); assay type: in vivo, rats; conditions: Rattus norvegicus, 96 h, oral 100 mg/kg for 4 days
From the text: The results of the anti-aggregation test and of the hypo-[…] action and hypo-cholesterolaemic action tests of other products of the invention have been […] Table V which follows, the code used being the following (for each dose shown): […]

[6] = oral 200 mg/kg, collagen/acetic acid diluted 1/10
[7] = oral daily dose 0.010 g/kg, read-out: Total cholesterol % inhibition
[8] = oral daily dose 0.010 g/kg, read-out: Total lipids % inhibition
[9] = oral daily dose 0.025 g/kg, read-out: Total cholesterol % inhibition
[10] = oral daily dose 0.025 g/kg, read-out: Total lipids % inhibition
[11] = oral daily dose 0.1 g/kg, read-out: Total cholesterol % inhibition
[12] = oral daily dose 0.1 g/kg, read-out: Total lipids % inhibition
[13] = normal diet, oral 50 mg/kg daily, 3 and 5 days

solubility in water (in words) ([2]; water): insoluble in water
Compound: CC(C)(Oc1ccc(Sc2ccc(Cl)cc2)cc1)C(=O)NCCO [CRL 40,251, N-Hydroxyethyl-4-(4-chlorophenylthio)-phenoxy-isobutyramide]
change in aggregation, collagen, latency period [1, 6]: +23% | change in aggregation, collagen, speed [1, 6]: -21%

Compound: CC(C)(Oc1ccc([S+]([O-])c2ccc(Cl)cc2)cc1)C(=O)O (stereo not shown) [CRL 40,202, 4-(4-Chlorophenylsulphinyl)-phenoxyisobutyric acid]
inhibition at 10 mg/kg [3, 7]: 26% | inhibition at 10 mg/kg [3, 8]: 27% | inhibition at 25 mg/kg [3, 9]: 59% | inhibition at 25 mg/kg [3, 10]: 53% | Total cholesterol ([3]; oral daily dose 0.010 g/kg): 3.64 g/L | Total lipids ([3]; oral daily dose 0.010 g/kg): 9.28 g/L | Total cholesterol ([3]; oral daily dose 0.025 g/kg): 2.38 g/L | Total lipids ([3]; oral daily dose 0.025 g/kg): 7.05 g/L

Compound: CC(Sc1ccc(Sc2ccc(Cl)cc2)cc1)C(=O)OCCSCCCCCCCCCCSCCOC(=O)C(C)Sc1ccc(Sc2ccc(Cl)cc2)cc1 (racemic) [CRL 40,398, 3,14-Dithia-1,16-hexadecyl di-(±)-{2-[p-(p-chlorophenylthio)-phenylthio]-propionate}]
change in the cholesterol content (in words) ([4]; oral 100 mg/kg, 4 days): no change in the cholesterol content | reduction in the (total) lipids ([4]; oral 100 mg/kg, 4 days): 17%

Compound: CCOC(=O)C(C)(C)Oc1ccc(Cl)cc1 [Lipavlon, ethyl 2-(p-chlorophenoxy)-2-methyl-propionate, reference compound]
inhibition at 100 mg/kg [3, 11]: 11% | inhibition at 100 mg/kg [3, 12]: 14% | Total cholesterol ([3]; oral daily dose 0.1 g/kg): 4.18 g/L | Total lipids ([3]; oral daily dose 0.1 g/kg): 10.4 g/L

Compound: CC(COC(=O)C(C)Sc1ccc(Oc2ccc(Cl)cc2)cc1)SCCCCCCCCCCSC(C)COC(=O)C(C)Sc1ccc(Oc2ccc(Cl)cc2)cc1 (racemic) [CRL 40,409, (±)-2,15-Dimethyl-3,14-dithia-1,16-hexadecyl di-(±)-{2-[p-(p-chlorophenoxy)-phenylthio]-propionate}]
reduction in the (total) lipids ([4]; oral 100 mg/kg, 4 days): 9-10%

Compound: CC(Oc1ccc(Sc2ccc(Cl)cc2)cc1)C(=O)OCCSCCCCCCCCCCSCCOC(=O)C(C)Oc1ccc(Sc2ccc(Cl)cc2)cc1 (racemic) [CRL 40,390, 3,14-Dithia-1,16-hexadecyl di-(±)-{2-[p-(p-chlorophenylthio)-phenoxy]-propionate}]
inhibition in vivo at 20 mg/kg ([4]; 96 h, oral 20 mg/kg, 4 days, read-out: reduction in the cholesterol): 25% | inhibition in vivo at 20 mg/kg ([4]; 96 h, oral 20 mg/kg, 4 days, read-out: reduction in the lipids): 25%

Compound: CC(COC(=O)CSc1ccc(Oc2ccc(Cl)cc2)cc1)SCCCCCCCCCCSC(C)COC(=O)CSc1ccc(Oc2ccc(Cl)cc2)cc1 (racemic) [CRL 40,405, (±)-2,15-Dimethyl-3,14-dithia-1,16-hexadecyl di-[p-(p-chlorophenoxy)-phenylthio-acetate]]
% transmission (collagen test) ([1]; 100 mg/kg): -10% | latency time (collagen test) ([1]; 100 mg/kg, unit not given): +10 | speed (collagen test) ([1]; 100 mg/kg, unit not given): -17 | inhibition in vivo at 100 mg/kg ([4]; 96 h, oral 100 mg/kg, 4 days): 44% | inhibition in vivo at 20 mg/kg ([4]; po, 120 h, 20 mg/kg, 5 days, read-out: reduction in the cholesterol): 30% | inhibition in vivo at 20 mg/kg ([4]; po, 120 h, 20 mg/kg, 5 days, read-out: reduction in the lipids): 12% | reduction in the (total) lipids ([4]; oral 100 mg/kg, 4 days): 35%

Compound: CC(Sc1ccc(Oc2ccc(Cl)cc2)cc1)C(=O)OCCSCCCCCCCCCCSCCOC(=O)C(C)Sc1ccc(Oc2ccc(Cl)cc2)cc1 (racemic) [CRL 40,408, 3,14-Dithia-1,16-hexadecyl di-(±)-{2-[p-(p-chlorophenoxy)-phenylthio]-propionate}]
inhibition in vivo at 100 mg/kg ([4]; 96 h, oral 100 mg/kg, 4 days): 20% | reduction in the (total) lipids ([4]; oral 100 mg/kg, 4 days): 17%

solubility in water (in words) ([2]; water): insoluble in water
Compound: CC(C)(CO)Oc1ccc(Oc2ccc(Cl)cc2)cc1 [CRL 40,310, 4-(4-Chlorophenoxy)-phenoxy-isobutanol]
change in vivo at 100 mg/kg ([5]; read-out: Cholesterol (change)): -32% | change in vivo at 100 mg/kg ([5]; read-out: Total lipids (change)): -20%

Compound: CC(COC(=O)C(C)(C)Sc1ccc(Sc2ccc(Cl)cc2)cc1)SCCCCCCCCCCSC(C)COC(=O)C(C)(C)Sc1ccc(Sc2ccc(Cl)cc2)cc1 (racemic) [CRL 40,403, (±)-2,15-Dimethyl-3,14-dithia-1,16-hexadecyl di-{2-[p-(p-chlorophenylthio)-phenylthio]-2-methylpropionate}]
inhibition in vivo at 100 mg/kg ([4]; 96 h, oral 100 mg/kg, 4 days): 32% | reduction in the (total) lipids ([4]; oral 100 mg/kg, 4 days): 10%

Compound: OCCSCCCCCCCCCCSCCO [LL 1558, 1,10-bis-(2-hydroxyethyl-thio)-decane, reference compound]
inhibition at 100 mg/kg [3, 11]: 63% | inhibition at 100 mg/kg [3, 12]: 54% | Total cholesterol ([3]; oral daily dose 0.1 g/kg): 2.22 g/L | Total lipids ([3]; oral daily dose 0.1 g/kg): 7 g/L

Compound: p-(p-Chlorophenylthio)-phenylthioacetic acid [CRL 40,386]
reduction in the concentration of cholesterol in the plasma [4, 13]: about 20% | reduction in the concentration of lipids in the plasma [4, 13]: about 20% | reduction in the (total) lipids ([4]; oral 100 mg/kg, 4 days): 42% | reduction in the cholesterol ([4]; oral 100 mg/kg, 4 days): 26%

solubility in alcohol (in words) [2]: insoluble in water and in alcohol | solubility in water (in words) ([2]; water): insoluble in water
Compound: CC(Oc1ccc(S(=O)(=O)c2ccc(Cl)cc2)cc1)C(=O)OCCNCCSCCCCCCCCCCSCCNCCOC(=O)C(C)Oc1ccc(S(=O)(=O)c2ccc(Cl)cc2)cc1 (racemic) [CRL 40249, 6,17-Dithia-3,20-diaza-1,22-docosanediol di-(±)-2-[p-(p-chlorophenylsulphonyl)-phenoxy]-propionate]

solubility in alcohol (in words) [2]: soluble in alcohol | solubility in water (in words) ([2]; water): insoluble in water
Compound: CC(C)(Oc1ccc(Sc2ccc(Cl)cc2)cc1)C(=O)OCCNCCSCCCCCCCCCCSCCNCCOC(=O)C(C)(C)Oc1ccc(Sc2ccc(Cl)cc2)cc1 [CRL 40 240, 6,17-Dithia-3,20-diaza-1,22-docosanediol di-p-(p-chlorophenylthio)-phenoxy-isobutyrate]

solubility in alcohol (in words) [2]: soluble in alcohol | solubility in water (in words) ([2]; water): insoluble in water
Compound: CC(C)(Oc1ccc(S(=O)(=O)c2ccc(Cl)cc2)cc1)C(=O)O [CRL 40,239, 4-(4-chlorophenylsulphonyl)-phenoxy-isobutyric acid]

solubility in water (in words) ([2]; water): water-insoluble
Compound: O=C(CSc1ccc(Oc2ccc(Cl)cc2)cc1)OCCSCCCCCCCCCCSCCOC(=O)CSc1ccc(Oc2ccc(Cl)cc2)cc1 [CRL 40,284, 3,14-Dithia-1,16-hexadecyl di-[p-(p-chlorophenoxy)-phenylthio-acetate]]

Compound: CC(CNCCO)Oc1ccc(Oc2ccc(Cl)cc2)cc1.Cl (racemic) [CRL 40 301, (±)-N-Hydroxyethyl-2-[4-(4-chlorophenoxy)-phenoxy]-1-propylamine hydrochloride]
solubility ([2]; water): 200 mg/mL

Compound: CC(COC(=O)CSc1ccc(Sc2ccc(Cl)cc2)cc1)SCCCCCCCCCCSC(C)COC(=O)CSc1ccc(Sc2ccc(Cl)cc2)cc1 (racemic) [CRL 40,395, (±)-2,15-Dimethyl-3,14-dithia-1,16-hexadecyl di-[p-(p-chlorophenylthio)-phenylthio-acetate]]
inhibition in vivo at 100 mg/kg ([4]; 96 h, oral 100 mg/kg, 4 days): 27% | reduction in the (total) lipids ([4]; oral 100 mg/kg, 4 days): 18%

solubility in alcohol (in words) [2]: soluble in alcohol | solubility in water (in words) ([2]; water): insoluble in water
Compound: CC(C)(Oc1ccc([S+]([O-])c2ccc(Cl)cc2)cc1)C(=O)OCCNCCSCCCCCCCCCCSCCNCCOC(=O)C(C)(C)Oc1ccc([S+]([O-])c2ccc(Cl)cc2)cc1 (stereo not shown) [CRL 40 242, 6,17-Dithia-3,20-diaza-1,22-docosanediol di-[4-(4-chlorosulphinyl)-phenoxy-isobutyrate]]

Compound: CC(C)(Oc1ccc(Sc2ccc(Cl)cc2)cc1)C(=O)O [CRL 40,201, 4-(4-Chlorophenylthio)-phenoxyisobutyric acid]
inhibition at 10 mg/kg [3, 7]: 35% | inhibition at 10 mg/kg [3, 8]: 30% | inhibition at 25 mg/kg [3, 9]: 48% | inhibition at 25 mg/kg [3, 10]: 45% | Total cholesterol ([3]; oral daily dose 0.010 g/kg): 3.28 g/L | Total lipids ([3]; oral daily dose 0.010 g/kg): 9 g/L | Total cholesterol ([3]; oral daily dose 0.025 g/kg): 2.8 g/L | Total lipids ([3]; oral daily dose 0.025 g/kg): 7.7 g/L

solubility in alcohol (in words) [2]: soluble in alcohol | solubility in water (in words) ([2]; water): insoluble in water
Compound: CC(Oc1ccccc1Sc1ccc(Cl)cc1)C(=O)OCCNCCSCCCCCCCCCCSCCNCCOC(=O)C(C)Oc1ccccc1Sc1ccc(Cl)cc1 (racemic) [CRL 40 247, 6,17-Dithia-3,20-diaza-1,22-docosanediol di-(±)-[2-(4-chlorophenylthio)phenoxy-propionate]]
